From ChEMBL document CHEMBL1158778, “Paecilosetin, a new bioactive fungal metabolite from a New Zealand isolate of Paecilomyces farinosus” (J Nat Prod, 2005)
In brackets after ≈: the same amount, converted by molar mass.

How the values were obtained:
[1] = system: Trichophyton mentagrophytes; experiment: Antimicrobial activity against Trichophyton mentagrophytes at 40 ug/disk by agar diffusion assay; type: functional; settings: read-out: IZ
Bacillus subtilis = experiment: Antimicrobial activity against Bacillus subtilis at 5 ug/disk by agar diffusion assay; type: functional; settings: read-out: IZ
Amorphotheca resinae = experiment: Antimicrobial activity against Cladosporium resinae at 40 ug/disk by agar diffusion assay; type: functional; settings: read-out: IZ
P388 = experiment: Cytotoxicity against mouse P388 cells by MTT assay; type: functional, cell-based

Row | SMILES | zone of inhibition at 40 µg/disc [1] [mm] | zone of inhibition at 5 µg/disc (Bacillus subtilis) [mm] | zone of inhibition at 40 µg/disc (Amorphotheca resinae) [mm] | IC50 (P388) [µg/mL]
1 | C/C=C/[C@@H]1C=C[C@@H]2C[C@H](C)CC[C@H]2[C@]1(C)/C(O)=C1\C(=O)N[C@@H](C(C)O)C1=O (stereo not given in full) [PAECILOSETIN] | 3 | 3 | 1 | 3.2 (≈ 8.57 µM)
2 | CCC(C)/C=C(C)/C=C/C=C/C=C/C(=O)c1c(O)c(-c2ccc(O)cc2)cn(O)c1=O (stereo not given) [FARINOSONE B] | – | – | – | 1.1 (≈ 2.61 µM)
